Reference: US20150045610A1, “METHOD OF MODIFYING SPERMATOGENESIS, SPERMIOGENESIS AND/OR FERTILITY IN MAMMALS” (Monell Chemical Senses Center, priority 2012, published 2015)
pIC50: −log10 of the molar value. Read-outs that look alike come from different tables or passages of the source.

Molecular target: T1, human T1R3 receptor (Homo sapiens, UniProt Q7RTX0)
T1 construct: expressed in transfected cells
T1 sequence (Q7RTX0 21-852): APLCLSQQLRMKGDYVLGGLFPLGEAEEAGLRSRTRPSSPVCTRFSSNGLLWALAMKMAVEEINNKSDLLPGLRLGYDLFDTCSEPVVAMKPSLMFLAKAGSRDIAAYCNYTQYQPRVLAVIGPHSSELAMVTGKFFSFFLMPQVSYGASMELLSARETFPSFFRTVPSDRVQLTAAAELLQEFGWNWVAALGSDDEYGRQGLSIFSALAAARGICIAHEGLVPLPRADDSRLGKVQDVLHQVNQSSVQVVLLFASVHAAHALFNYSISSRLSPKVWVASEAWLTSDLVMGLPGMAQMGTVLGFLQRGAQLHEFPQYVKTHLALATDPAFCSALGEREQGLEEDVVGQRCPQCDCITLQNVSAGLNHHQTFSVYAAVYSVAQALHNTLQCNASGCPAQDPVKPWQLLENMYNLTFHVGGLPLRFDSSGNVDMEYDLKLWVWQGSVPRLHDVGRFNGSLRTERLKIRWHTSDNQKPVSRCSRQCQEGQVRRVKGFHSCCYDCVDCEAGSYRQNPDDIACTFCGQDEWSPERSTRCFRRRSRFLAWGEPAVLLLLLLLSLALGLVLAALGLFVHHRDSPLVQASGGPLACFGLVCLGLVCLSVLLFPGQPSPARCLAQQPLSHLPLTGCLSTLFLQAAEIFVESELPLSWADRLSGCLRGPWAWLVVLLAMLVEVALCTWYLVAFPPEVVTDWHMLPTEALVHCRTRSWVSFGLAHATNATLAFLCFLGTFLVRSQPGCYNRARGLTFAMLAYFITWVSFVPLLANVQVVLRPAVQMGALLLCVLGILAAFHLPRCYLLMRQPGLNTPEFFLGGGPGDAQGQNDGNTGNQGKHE
T1 sequence (Q8TE23 20-839 partner): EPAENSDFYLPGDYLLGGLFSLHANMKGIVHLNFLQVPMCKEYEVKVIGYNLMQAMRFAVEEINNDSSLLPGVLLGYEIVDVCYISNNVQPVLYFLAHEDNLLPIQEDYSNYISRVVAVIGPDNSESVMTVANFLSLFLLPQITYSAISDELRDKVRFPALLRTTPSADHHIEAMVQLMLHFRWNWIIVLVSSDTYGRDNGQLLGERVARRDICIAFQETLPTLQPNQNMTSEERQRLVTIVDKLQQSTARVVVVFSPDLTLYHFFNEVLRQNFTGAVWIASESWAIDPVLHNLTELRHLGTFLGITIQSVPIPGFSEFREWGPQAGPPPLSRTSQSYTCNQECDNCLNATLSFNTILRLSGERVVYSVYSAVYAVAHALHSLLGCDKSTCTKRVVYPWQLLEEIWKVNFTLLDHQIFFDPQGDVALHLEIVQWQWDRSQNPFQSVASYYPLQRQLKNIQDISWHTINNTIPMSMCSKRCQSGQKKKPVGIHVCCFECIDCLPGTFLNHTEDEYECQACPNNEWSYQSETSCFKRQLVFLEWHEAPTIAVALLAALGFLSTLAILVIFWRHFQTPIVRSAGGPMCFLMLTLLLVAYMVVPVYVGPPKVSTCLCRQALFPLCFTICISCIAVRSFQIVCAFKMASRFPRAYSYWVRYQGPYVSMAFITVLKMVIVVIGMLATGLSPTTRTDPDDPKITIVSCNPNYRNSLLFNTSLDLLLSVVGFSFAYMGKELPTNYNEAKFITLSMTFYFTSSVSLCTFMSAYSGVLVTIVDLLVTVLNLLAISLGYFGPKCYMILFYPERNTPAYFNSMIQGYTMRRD
Assay: sweet receptor inhibition assay (receptor activated with 2.5 mM sucralose)
Type: cell-based
Experimental: FIG. 1 is a bar graph showing human (h), mouse (m) and chimeric mouse/human (m/h) sweet receptors activated with 2.5 mM sucralose and assayed for inhibition by certain T1R3 inhibitors or controls, measured by DF/F in %.
Chimeric receptors of T1R3 contained the extracellular portion of human or mouse receptor and the transmembrane domain and C-terminal domain from mouse or human receptor: mh indicates the presence of the mouse extracellular domain and human transmembrane domain; hm indicates the presence of the human extracellular domain and mouse transmembrane domain.

## CC(C)(Oc1ccc(Cl)cc1)C(=O)O [clofibric acid]
read-out: IC50, block of the T1R3 receptor
  pIC50: 4.55
read-out: IC50 values, human T1R3 inhibitors
  pIC50: 7.55
